Assay results as given in paper PMC5681922, “Systemic Responses of Multidrug-Resistant Pseudomonas aeruginosa and Acinetobacter baumannii Following Exposure to the Antimicrobial Peptide Cathelicidin-BF Imply Multiple Intracellular Targets” (Frontiers in Cellular and Infection Microbiology, 2017).
Like-named read-outs stand apart in the source and are kept apart here. No end group written: not given here.

Tested on: P. aeruginosa 1409
[1] = treated vs untreated, iTRAQ, cathelicidin-BF change not categorized as differentially expressed

Sequence: KFFRKLKKSVKKRAKEFFKKPRVIGVSIPF [cathelicidin-BF]
- Pa-Ca/Pa-C: 0.8832
- Pa-Ca/Pa-C: 30S ribosomal protein S9, rpsI (Q9HVY3): 0.9749
- expression of protein Q9HVA1 (acetolactate synthase isozyme III small subunit): overexpressed
- expression of protein Q9I3S7 (likely decarboxylase): downregulated
- expression of protein Q9I523 (nucleoside-triphosphate diphosphatase): downregulated
- Pa-Ca/Pa-C (iTRAQ abundance ratio Pa-Cathelicidin/Pa-Control of protein G3XCU7 (GN=PA2949)): 0.9896
- Pa-Ca/Pa-C (iTRAQ abundance ratio Pa-Cathelicidin/Pa-Control of protein G3XCU9 (GN=PA2020)): 0.9868
- Pa-Ca/Pa-C (iTRAQ abundance ratio Pa-Cathelicidin/Pa-Control of protein G3XCW2 (GN=PA2018)): 1.1346
- Pa-Ca/Pa-C (iTRAQ abundance ratio Pa-Cathelicidin/Pa-Control of protein G3XCX7 (GN=pilP)): 0.9395
- Pa-Ca/Pa-C (iTRAQ abundance ratio Pa-Cathelicidin/Pa-Control of protein G3XCZ4 (GN=PA0891)): 1.209
- Pa-Ca/Pa-C (iTRAQ abundance ratio Pa-Cathelicidin/Pa-Control of protein G3XD66 (GN=narX)): 0.9046
- Pa-Ca/Pa-C (iTRAQ abundance ratio Pa-Cathelicidin/Pa-Control of protein G3XD98 (GN=gacS)): 1.089
- Pa-Ca/Pa-C (iTRAQ abundance ratio Pa-Cathelicidin/Pa-Control of protein G3XDA4 (GN=PA0653)): 1.044
- Pa-Ca/Pa-C (iTRAQ abundance ratio Pa-Cathelicidin/Pa-Control of protein O50273 (GN=cysD)): 0.9324
- Pa-Ca/Pa-C (iTRAQ abundance ratio Pa-Cathelicidin/Pa-Control of protein O68561 (GN=PA4766)): 1.042
- Pa-Ca/Pa-C (iTRAQ abundance ratio Pa-Cathelicidin/Pa-Control of protein P23747 (GN=algB)): 1.041
- Pa-Ca/Pa-C (iTRAQ abundance ratio Pa-Cathelicidin/Pa-Control of protein Q9HT06 (GN=yidC)): 1.13
- Pa-Ca/Pa-C (iTRAQ abundance ratio Pa-Cathelicidin/Pa-Control of protein Q9HT09 (GN=mnmG)): 1.075
- Pa-Ca/Pa-C (iTRAQ abundance ratio Pa-Cathelicidin/Pa-Control of protein Q9HTC2 (GN=PA5445)): 1.07
- Pa-Ca/Pa-C (iTRAQ abundance ratio Pa-Cathelicidin/Pa-Control of protein Q9HTG5 (GN=dgcB)): 1.053
- Pa-Ca/Pa-C (iTRAQ abundance ratio Pa-Cathelicidin/Pa-Control of protein Q9HTH5 (GN=cdhR)): 1.224
- Pa-Ca/Pa-C (iTRAQ abundance ratio Pa-Cathelicidin/Pa-Control of protein Q9HTJ5 (GN=pstA)): 0.8996
- Pa-Ca/Pa-C (iTRAQ abundance ratio Pa-Cathelicidin/Pa-Control of protein Q9HTL3 (GN=recG)): 1.182
- Pa-Ca/Pa-C (iTRAQ abundance ratio Pa-Cathelicidin/Pa-Control of protein Q9HTM0 (GN=spoT)): 1.095
- Pa-Ca/Pa-C (iTRAQ abundance ratio Pa-Cathelicidin/Pa-Control of protein Q9HTN3 (GN=dut)): 1.23
- Pa-Ca/Pa-C (iTRAQ abundance ratio Pa-Cathelicidin/Pa-Control of protein Q9HTQ6 (GN=xpt)): 1.069
- Pa-Ca/Pa-C (iTRAQ abundance ratio Pa-Cathelicidin/Pa-Control of protein Q9HTY4 (GN=argE)): 1.064
- Pa-Ca/Pa-C (iTRAQ abundance ratio Pa-Cathelicidin/Pa-Control of protein Q9HU23 (GN=rmlD)): 0.9526
- Pa-Ca/Pa-C (iTRAQ abundance ratio Pa-Cathelicidin/Pa-Control of protein Q9HU51 (GN=PA5133)): 0.8597
- Pa-Ca/Pa-C (iTRAQ abundance ratio Pa-Cathelicidin/Pa-Control of protein Q9HUB1 (GN=PA5072)): 1.129
- Pa-Ca/Pa-C (iTRAQ abundance ratio Pa-Cathelicidin/Pa-Control of protein Q9HUL5 (GN=PA4949)): 0.9992
- Pa-Ca/Pa-C (iTRAQ abundance ratio Pa-Cathelicidin/Pa-Control of protein Q9HUN4 (GN=alr)): 0.8997
- Pa-Ca/Pa-C (iTRAQ abundance ratio Pa-Cathelicidin/Pa-Control of protein Q9HUS6 (GN=PA4887)): 0.9498
- Pa-Ca/Pa-C (iTRAQ abundance ratio Pa-Cathelicidin/Pa-Control of protein Q9HUT5 (GN=PA4878)): 0.8866
- Pa-Ca/Pa-C (iTRAQ abundance ratio Pa-Cathelicidin/Pa-Control of protein Q9HVA1 (GN=ilvH)): 1.442
- Pa-Ca/Pa-C (iTRAQ abundance ratio Pa-Cathelicidin/Pa-Control of protein Q9HVI2 (GN=PA4607)): 1.1056
- Pa-Ca/Pa-C (iTRAQ abundance ratio Pa-Cathelicidin/Pa-Control of protein Q9HVI3 (GN=PA4606)): 1.1297
- Pa-Ca/Pa-C (iTRAQ abundance ratio Pa-Cathelicidin/Pa-Control of protein Q9HVP4 (GN=PA4533)): 1.032
- Pa-Ca/Pa-C (iTRAQ abundance ratio Pa-Cathelicidin/Pa-Control of protein Q9HVQ9 (GN=lpxO1)): 0.3833
- Pa-Ca/Pa-C (iTRAQ abundance ratio Pa-Cathelicidin/Pa-Control of protein Q9HVV6 (GN=PA4461)): 0.9096
- Pa-Ca/Pa-C (iTRAQ abundance ratio Pa-Cathelicidin/Pa-Control of protein Q9HW10 (GN=PA4396)): 0.9909
- Pa-Ca/Pa-C (iTRAQ abundance ratio Pa-Cathelicidin/Pa-Control of protein Q9HW40 (GN=PA4361)): 1.028
- Pa-Ca/Pa-C (iTRAQ abundance ratio Pa-Cathelicidin/Pa-Control of protein Q9HW52 (GN=PA4349)): 1.052
- Pa-Ca/Pa-C (iTRAQ abundance ratio Pa-Cathelicidin/Pa-Control of protein Q9HW85 (GN=sbcB)): 0.9833
- Pa-Ca/Pa-C (iTRAQ abundance ratio Pa-Cathelicidin/Pa-Control of protein Q9HWG9 (GN=phzS)): 0.9442
- Pa-Ca/Pa-C (iTRAQ abundance ratio Pa-Cathelicidin/Pa-Control of protein Q9HX06 (GN=PA4021)): 1.123
- Pa-Ca/Pa-C (iTRAQ abundance ratio Pa-Cathelicidin/Pa-Control of protein Q9HX89 (GN=PA3924)): 0.8403
- Pa-Ca/Pa-C (iTRAQ abundance ratio Pa-Cathelicidin/Pa-Control of protein Q9HXF4 (GN=PA3852)): 1.051
- Pa-Ca/Pa-C (iTRAQ abundance ratio Pa-Cathelicidin/Pa-Control of protein Q9HXG8 (GN=PA3836)): 1.058
- Pa-Ca/Pa-C (iTRAQ abundance ratio Pa-Cathelicidin/Pa-Control of protein Q9HXL6 (GN=PA3779)): 0.9473
- Pa-Ca/Pa-C (iTRAQ abundance ratio Pa-Cathelicidin/Pa-Control of protein Q9HXT9 (GN=wspR)): 1.096
- Pa-Ca/Pa-C (iTRAQ abundance ratio Pa-Cathelicidin/Pa-Control of protein Q9HY45 (GN=PA3575)): 1.067
- Pa-Ca/Pa-C (iTRAQ abundance ratio Pa-Cathelicidin/Pa-Control of protein Q9HY53 (GN=PA3564)): 0.9999
- Pa-Ca/Pa-C (iTRAQ abundance ratio Pa-Cathelicidin/Pa-Control of protein Q9HYC5 (GN=PA3484)): 1.215
- Pa-Ca/Pa-C (iTRAQ abundance ratio Pa-Cathelicidin/Pa-Control of protein Q9HYK2 (GN=PA3402)): 1.136
- Pa-Ca/Pa-C (iTRAQ abundance ratio Pa-Cathelicidin/Pa-Control of protein Q9HYU6 (GN=PA3297)): 0.9414
- Pa-Ca/Pa-C (iTRAQ abundance ratio Pa-Cathelicidin/Pa-Control of protein Q9HYV7 (GN=PA3286)): 0.9022
- Pa-Ca/Pa-C (iTRAQ abundance ratio Pa-Cathelicidin/Pa-Control of protein Q9HYZ3 (GN=apeB)): 1.0565
- Pa-Ca/Pa-C (iTRAQ abundance ratio Pa-Cathelicidin/Pa-Control of protein Q9HZD8 (GN=PA3070)): 0.9912
- Pa-Ca/Pa-C (iTRAQ abundance ratio Pa-Cathelicidin/Pa-Control of protein Q9HZF4 (GN=PA3054)): 0.9528
- Pa-Ca/Pa-C (iTRAQ abundance ratio Pa-Cathelicidin/Pa-Control of protein Q9HZG0 (GN=rlmL)): 0.9995
- Pa-Ca/Pa-C (iTRAQ abundance ratio Pa-Cathelicidin/Pa-Control of protein Q9HZG4 (GN=PA3044)): 1.123
- Pa-Ca/Pa-C (iTRAQ abundance ratio Pa-Cathelicidin/Pa-Control of protein Q9HZM6 (GN=ptpA)): 0.8326
- Pa-Ca/Pa-C (iTRAQ abundance ratio Pa-Cathelicidin/Pa-Control of protein Q9HZN0 (GN=PA2974)): 1.056
- Pa-Ca/Pa-C (iTRAQ abundance ratio Pa-Cathelicidin/Pa-Control of protein Q9HZY0 (GN=mttC)): 1.0109
- Pa-Ca/Pa-C (iTRAQ abundance ratio Pa-Cathelicidin/Pa-Control of protein Q9I0F5 (GN=PA2683)): 1.0558
- Pa-Ca/Pa-C (iTRAQ abundance ratio Pa-Cathelicidin/Pa-Control of protein Q9I0I2 (GN=PA2656)): 1.043
- Pa-Ca/Pa-C (iTRAQ abundance ratio Pa-Cathelicidin/Pa-Control of protein Q9I0Q7 (GN=kynA)): 0.9342
- Pa-Ca/Pa-C (iTRAQ abundance ratio Pa-Cathelicidin/Pa-Control of protein Q9I0R5 (GN=PA2571)): 0.9216
- Pa-Ca/Pa-C (iTRAQ abundance ratio Pa-Cathelicidin/Pa-Control of protein Q9I0Z9 (GN=PA2483)): 0.8854
- Pa-Ca/Pa-C (iTRAQ abundance ratio Pa-Cathelicidin/Pa-Control of protein Q9I1H9 (GN=PA2296)): 0.9095
- Pa-Ca/Pa-C (iTRAQ abundance ratio Pa-Cathelicidin/Pa-Control of protein Q9I1I4 (GN=PA2291)): 1.111
- Pa-Ca/Pa-C (iTRAQ abundance ratio Pa-Cathelicidin/Pa-Control of protein Q9I1M1 (GN=bkdA2)): 1.005
- Pa-Ca/Pa-C (iTRAQ abundance ratio Pa-Cathelicidin/Pa-Control of protein Q9I2G3 (GN=PA1941)): 0.9926
- Pa-Ca/Pa-C (iTRAQ abundance ratio Pa-Cathelicidin/Pa-Control of protein Q9I2R3 (GN=PA1832)): 0.9008
- Pa-Ca/Pa-C (iTRAQ abundance ratio Pa-Cathelicidin/Pa-Control of protein Q9I2T1 (GN=gloB)): 0.964
- Pa-Ca/Pa-C (iTRAQ abundance ratio Pa-Cathelicidin/Pa-Control of protein Q9I2Y1 (GN=pabB)): 0.998
- Pa-Ca/Pa-C (iTRAQ abundance ratio Pa-Cathelicidin/Pa-Control of protein Q9I3F3 (GN=tusA)): 0.8155
- Pa-Ca/Pa-C (iTRAQ abundance ratio Pa-Cathelicidin/Pa-Control of protein Q9I3J6 (GN=PA1517)): 1.049
- Pa-Ca/Pa-C (iTRAQ abundance ratio Pa-Cathelicidin/Pa-Control of protein Q9I3L0 (GN=gcl)): 0.9901
- Pa-Ca/Pa-C (iTRAQ abundance ratio Pa-Cathelicidin/Pa-Control of protein Q9I4B6 (GN=PA1222)): 0.8647
- Pa-Ca/Pa-C (iTRAQ abundance ratio Pa-Cathelicidin/Pa-Control of protein Q9I4H9 (GN=PA1158)): 1.038
- Pa-Ca/Pa-C (iTRAQ abundance ratio Pa-Cathelicidin/Pa-Control of protein Q9I4N6 (GN=fliS)): 1.132
- Pa-Ca/Pa-C (iTRAQ abundance ratio Pa-Cathelicidin/Pa-Control of protein Q9I4N9 (GN=PA1090)): 1.038
- Pa-Ca/Pa-C (iTRAQ abundance ratio Pa-Cathelicidin/Pa-Control of protein Q9I4R3 (GN=PA1061)): 0.9798
- Pa-Ca/Pa-C (iTRAQ abundance ratio Pa-Cathelicidin/Pa-Control of protein Q9I5M1 (GN=migA)): 0.9698
- Pa-Ca/Pa-C (iTRAQ abundance ratio Pa-Cathelicidin/Pa-Control of protein Q9I5U7 (GN=apaH)): 1.014
- Pa-Ca/Pa-C (iTRAQ abundance ratio Pa-Cathelicidin/Pa-Control of protein Q9I5V3 (GN=cca)): 0.7612
- Pa-Ca/Pa-C (iTRAQ abundance ratio Pa-Cathelicidin/Pa-Control of protein Q9I6B3 (GN=trmB)): 1.011
- Pa-Ca/Pa-C (iTRAQ abundance ratio Pa-Cathelicidin/Pa-Control of protein Q9I7A7 (GN=PA0020)): 1.051
- Pa-Ca/Pa-C (iTRAQ abundance ratio Pa-Cathelicidin/Pa-Control of protein Q9I022 (GN=PA2821)): 0.7721
- Pa-Ca/Pa-C (iTRAQ abundance ratio Pa-Cathelicidin/Pa-Control of protein Q9I164 (GN=PA2417)): 1.295
- Pa-Ca/Pa-C (iTRAQ abundance ratio Pa-Cathelicidin/Pa-Control of protein Q9I233 (GN=PA2082)): 0.8885
- Pa-Ca/Pa-C (iTRAQ abundance ratio Pa-Cathelicidin/Pa-Control of protein Q9I300 (GN=PA1737)): 1.149
- Pa-Ca/Pa-C (iTRAQ abundance ratio Pa-Cathelicidin/Pa-Control of protein Q9I342 (GN=mtnB)): 1.093
- Pa-Ca/Pa-C (iTRAQ abundance ratio Pa-Cathelicidin/Pa-Control of protein Q9I468 (GN=cobC)): 0.7767
- Pa-Ca/Pa-C (iTRAQ abundance ratio Pa-Cathelicidin/Pa-Control of protein Q9I538 (GN=PA0919)): 0.9631
- Pa-Ca/Pa-C (iTRAQ abundance ratio Pa-Cathelicidin/Pa-Control of protein Q9I655 (GN=creB)): 0.9495
- Pa-Ca/Pa-C (iTRAQ abundance ratio Pa-Cathelicidin/Pa-Control of protein Q9I656 (GN=PA0462)): 1.049
- Pa-Ca/Pa-C (iTRAQ abundance ratio Pa-Cathelicidin/Pa-Control of protein Q9I673 (GN=PA0444)): 0.9127
- Pa-Ca/Pa-C (iTRAQ abundance ratio Pa-Cathelicidin/Pa-Control of protein Q9I688 (GN=PA0429)): 1.007
- Pa-Ca/Pa-C (iTRAQ abundance ratio Pa-Cathelicidin/Pa-Control of protein Q9I700 (GN=bauA)): 0.9294
- Pa-Ca/Pa-C (iTRAQ abundance ratio Pa-Cathelicidin/Pa-Control of protein Q9X6V8 (GN=PA3998)): 1.122
- Pa-Ca/Pa-C (iTRAQ abundance ratio Pa-Cathelicidin/Pa-Control of protein Q51426 (GN=ruvB)): 1.14
- expression of protein Q9HTV3 (3-octaprenyl-4-hydroxybenzoate carboxy-lyase) [1]: downregulated
- expression of protein Q9I298 (putative 3-methylglutaconyl-ConA hydratase) [1]: downregulated
- expression of protein Q9I5V3 (multifunctional CCA protein) (treated vs untreated, iTRAQ, levofloxacin change not categorized as differentially expressed): downregulated
